From patent US12544375B2, “Small molecule therapeutic for parkinson's disease paired with a biomarker of therapeutic activity” (The Board of Trustees of the Leland Stanford Junior …, priority 2019, dated 2026)

System: LRRK2^G2019S, PINK1 null and SNCA^A53T flies
Assay: Fly lifespan (survival curves)
Format: in vivo
Description: FIG. 4A-FIG. 4I. Miro1 Reducer Rescues PD-Relevant Phenotypes in Flies. For all panels, when Miro1 Reducer was not added, the same volume of the solvent, DMSO, was supplied in fly food. Drug administration (2.5 μM) was started from day 2. (FIG. 4A-FIG. 4C) Survival curves of LRRK2^G2019S (FIG. 4A), PINK1^B9 (imprecise excision, null) and PINK1^RV (the precise excision control for PINK1^B9) (FIG. 4B), and SNCA^A53T flies (FIG. 4C). n=58-150. (FIG. 4D) Dopaminergic (DA) neurons in the PPM1/2 clusters of 22-day old flies were immunostained with anti-TH. (FIG. 4D-FIG. 4F) Quantification of the DA neuron number in the PPL1 or PPM1/2 cluster (total number divided by 2 for each brain). (FIG. 4D) LRRK2^G2019S. n=6-8 brains. (FIG. 4E) PINK1^B9 (“−”) and PINK1^RV (“+”). n=9-16. (FIG. 4F) SNCA^A53T. n=9-11. (FIG. 4G-FIG. 4I) Climbing ability (Average PI±S.E.M) of adult flies. n=24-47 flies.
In order to cross-validate the neuroprotective effect of Miro1 Reducer in vivo, we fed the compound to three well-established fly PD models: (1) Actin-GAL4>UAS-LRRK2^G2019S (ubiquitous expression of human pathogenic LRRK2); (2) PINK1 null; and (3) Elav-GAL4>UAS-SNCA^A53T (neuronal expression of human pathogenic alpha-synuclein). […]
Fly Behavior and Biochemical Assays. […] Flies were transferred into fresh vials and the numbers of dead and escaped flies were scored 3 times a week. […]

For `O=C(Nc1ccc(Nc2cc(-n3ccnc3)ncn2)cc1)Nc1cccc(F)c1` [Miro1 Reducer], the “long-term toxicity (lifespan)” value (2.5 μM in food from adulthood, wild-type or PD flies) was “no long-term toxicity” and the “lifespan of SNCA^A53T flies” value (2.5 μM in food, Log-Rank P=0.00019 0 μM v.s. 2.5 μM) was “extended the shortened lifespan”.
